Data published in patent US10988523B2, “Modified lipidated Relaxin B chain peptides and their therapeutic use” (Sanofi, priority 2018, dated 2021).
*1 amine or outer side, *2 acyl side, *3 side chain or, on linkers, in order; H or OH if unused. Where a SMILES comes first, the peptide text is derived from it. Side-chain parts run from the residue outwards. [ ]: non-standard residue; d: D form. The star is where a group is joined. γGlu = O=C(O)[C@H](CCC(=O)[*:2])N[*:1]; Stearoyl = CCCCCCCCCCCCCCCCCC(=O)*; Nle = CCCC[C@H](N)C(=O)O; AEEA = NCCOCCOCC(=O)O; Aib = CC(C)(N)C(=O)O

Molecular target: T1, RXFP1 (Homo sapiens, UniProt Q9HBX9)
T1 construct: OVCAR5 cells expressing endogenous RXFP1; endogenous in cells; host or cells: OVCAR5 cells
T1 sequence (Q9HBX9 1-757): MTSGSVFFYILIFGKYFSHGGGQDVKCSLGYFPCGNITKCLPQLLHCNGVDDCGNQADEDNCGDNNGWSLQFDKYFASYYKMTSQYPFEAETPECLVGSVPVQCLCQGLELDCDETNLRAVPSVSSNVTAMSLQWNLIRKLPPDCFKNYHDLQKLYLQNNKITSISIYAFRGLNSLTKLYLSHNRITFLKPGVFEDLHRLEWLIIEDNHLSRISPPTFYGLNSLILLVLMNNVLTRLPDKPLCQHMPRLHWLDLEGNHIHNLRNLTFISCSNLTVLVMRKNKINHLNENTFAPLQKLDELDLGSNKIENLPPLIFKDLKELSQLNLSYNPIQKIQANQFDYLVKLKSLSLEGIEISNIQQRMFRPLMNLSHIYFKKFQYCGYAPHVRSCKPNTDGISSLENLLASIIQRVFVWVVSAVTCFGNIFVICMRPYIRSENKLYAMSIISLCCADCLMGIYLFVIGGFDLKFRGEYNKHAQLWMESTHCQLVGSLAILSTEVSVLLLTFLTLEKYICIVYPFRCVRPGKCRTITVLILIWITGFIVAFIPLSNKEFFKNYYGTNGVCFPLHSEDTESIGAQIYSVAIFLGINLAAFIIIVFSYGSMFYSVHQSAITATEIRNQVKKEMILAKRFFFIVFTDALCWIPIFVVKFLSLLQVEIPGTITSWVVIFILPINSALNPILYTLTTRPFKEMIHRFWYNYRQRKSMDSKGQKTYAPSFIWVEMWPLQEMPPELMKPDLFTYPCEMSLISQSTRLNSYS
Experiment: OVCAR5 cAMP assay (HTRF), RXFP1 agonist activity
Assay type: cell-based
Conditions: for Emax: OVCAR-5, maximal cAMP relative to H2-relaxin maximum (100%), read-out: EMax, OVCAR 5 cells (cAMP); for EC50: OVCAR5 cells, cAMP HTRF, read-out: EC50 (nM), OVCAR 5 cells (cAMP)
Method in brief: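 OVCAR5 cells (endogenous RXFP1) pretreated 40 min at 37° C with 1 mM IBMX, then exposed to peptides in serum-free medium for 30 min at 37° C. Lysate cAMP read by HTRF; EC50 from variable-slope sigmoidal fit; Emax as % of H2-relaxin maximal cAMP in same run.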

CCCCCCCCCCCCCCCCCC(=O)N[C@@H](CCC(=O)N[C@@H](CCC(=O)N[C@@H](CCC(=O)NCCOCCOCC(=O)NCCOCCOCC(=O)NCCCC[C@H](NC(=O)[C@H](CCCCN)NC(=O)[C@H](CCCCN)NC(=O)[C@H](CCCNC(=N)N)NC(=O)C(C)(C)NC(=O)[C@H](CO)NC(=O)[C@H](Cc1c[nH]c2ccccc12)NC(=O)[C@@H](NC(=O)[C@H](CO)NC(=O)[C@H](CCCC)NC(=O)CNC(=O)[C@H](CCC(=O)O)NC(=O)C(C)(C)NC(=O)C(C)(C)NC(=O)[C@@H](NC(=O)[C@H](CCC(N)=O)NC(=O)C(C)(C)NC(=O)[C@H](CCCNC(=N)N)NC(=O)[C@@H](NC(=O)[C@H](CCCCN)NC(=O)[C@H](CCC(=O)O)NC(=O)[C@H](CCCNC(=N)N)NC(=O)CNC(=O)[C@H](CCC(=O)O)NC(=O)[C@H](CC(C)C)NC(C)=O)C(C)C)[C@@H](C)CC)[C@@H](C)O)C(N)=O)C(=O)O)C(=O)O)C(=O)O [compound 69] (Ac-LEGREKVR[Aib]QI[Aib][Aib]EG[Nle]STWS[Aib]RKKK([AEEA-AEEA-γGlu-γGlu-γGlu-Stearoyl])-NH2)
Emax: 87%

CCCCCCCCCCCCCCCCCC(=O)N[C@@H](CCC(=O)N[C@@H](CCC(=O)N[C@@H](CCC(=O)NCCOCCOCC(=O)NCCOCCOCC(=O)NCCCC[C@H](NC(=O)[C@H](CCCCN)NC(=O)[C@H](CCCCN)NC(=O)[C@H](CCCNC(=N)N)NC(=O)C(C)(C)NC(=O)[C@H](CO)NC(=O)[C@H](Cc1c[nH]c2ccccc12)NC(=O)[C@@H](NC(=O)[C@H](CO)NC(=O)[C@H](CCC(N)=O)NC(=O)CNC(=O)[C@H](CCC(=O)O)NC(=O)C(C)(C)NC(=O)C(C)(C)NC(=O)[C@@H](NC(=O)[C@H](CCC(N)=O)NC(=O)[C@H](C)NC(=O)[C@H](CCCNC(=N)N)NC(=O)[C@@H](NC(=O)[C@H](CCCCN)NC(=O)[C@H](CCC(=O)O)NC(=O)[C@H](CCCNC(=N)N)NC(=O)CNC(=O)[C@H](CCC(=O)O)NC(=O)[C@H](CC(C)C)NC(C)=O)C(C)C)[C@@H](C)CC)[C@@H](C)O)C(N)=O)C(=O)O)C(=O)O)C(=O)O [compound 70] (Ac-LEGREKVRAQI[Aib][Aib]EGQSTWS[Aib]RKKK([AEEA-AEEA-γGlu-γGlu-γGlu-Stearoyl])-NH2)
Emax: 86%

CCCCCCCCCCCCCCCCCC(=O)N[C@@H](CCC(=O)N[C@@H](CCC(=O)N[C@@H](CCC(=O)NCCOCCOCC(=O)NCCOCCOCC(=O)NCCCC[C@H](NC(=O)[C@H](CCCCN)NC(=O)[C@H](CCCCN)NC(=O)[C@H](CCCNC(=N)N)NC(=O)C(C)(C)NC(=O)[C@H](CO)NC(=O)[C@H](Cc1c[nH]c2ccccc12)NC(=O)[C@@H](NC(=O)[C@H](CO)NC(=O)[C@H](CCCC)NC(=O)CNC(=O)[C@H](CCC(=O)O)NC(=O)C(C)(C)NC(=O)C(C)(C)NC(=O)[C@@H](NC(=O)[C@H](CCC(N)=O)NC(=O)[C@H](C)NC(=O)[C@H](CCCNC(=N)N)NC(=O)[C@@H](NC(=O)[C@H](CCCCN)NC(=O)[C@H](CCC(=O)O)NC(=O)[C@H](CCCNC(=N)N)NC(=O)CNC(=O)[C@H](CCC(=O)O)NC(=O)[C@H](CC(C)C)NC(C)=O)C(C)C)[C@@H](C)CC)[C@@H](C)O)C(N)=O)C(=O)O)C(=O)O)C(=O)O [compound 71] (Ac-LEGREKVRAQI[Aib][Aib]EG[Nle]STWS[Aib]RKKK([AEEA-AEEA-γGlu-γGlu-γGlu-Stearoyl])-NH2)
Emax: 87%

CCCCCCCCCCCCCCCCCC(=O)N[C@@H](CCC(=O)N[C@@H](CCC(=O)N[C@@H](CCC(=O)NCCOCCOCC(=O)NCCOCCOCC(=O)NCCCC[C@H](NC(=O)[C@H](CCCCN)NC(=O)[C@H](CCCCNC(C)=O)NC(=O)[C@H](CCCNC(=N)N)NC(=O)C(C)(C)NC(=O)[C@H](CO)NC(=O)[C@H](Cc1c[nH]c2ccccc12)NC(=O)[C@@H](NC(=O)[C@H](CO)NC(=O)[C@H](CCCC)NC(=O)CNC(=O)[C@H](CCC(=O)O)NC(=O)C(C)(C)NC(=O)C(C)(C)NC(=O)[C@@H](NC(=O)[C@H](CCCCNC(C)=O)NC(=O)[C@H](C)NC(=O)[C@H](CCCNC(=N)N)NC(=O)[C@@H](NC(=O)[C@H](CCCCN)NC(=O)[C@H](CCC(=O)O)NC(=O)[C@H](CCCNC(=N)N)NC(=O)CNC(=O)[C@H](CCC(=O)O)NC(=O)[C@H](CC(C)C)NC(C)=O)C(C)C)[C@@H](C)CC)[C@@H](C)O)C(N)=O)C(=O)O)C(=O)O)C(=O)O [compound 72] (Ac-LEGREKVRAK(Ac)I[Aib][Aib]EG[Nle]STWS[Aib]RK(Ac)KK([AEEA-AEEA-γGlu-γGlu-γGlu-Stearoyl])-NH2)
EC50: 0.17 nM | Emax: 93%

CCCCCCCCCCCCCCCCCC(=O)N[C@@H](CCC(=O)N[C@@H](CCC(=O)N[C@@H](CCC(=O)NCCOCCOCC(=O)NCCOCCOCC(=O)NCCCC[C@H](NC(=O)[C@H](CCCCN)NC(=O)[C@H](CCCNC(=N)N)NC(=O)C(C)(C)NC(=O)[C@H](CO)NC(=O)[C@H](Cc1c[nH]c2ccccc12)NC(=O)[C@@H](NC(=O)[C@H](CO)NC(=O)[C@H](CCCC)NC(=O)CNC(=O)[C@H](CCC(=O)O)NC(=O)C(C)(C)NC(=O)C(C)(C)NC(=O)[C@@H](NC(=O)[C@H](CCCCNC(C)=O)NC(=O)[C@H](C)NC(=O)[C@H](CCCNC(=N)N)NC(=O)[C@@H](NC(=O)[C@H](CCCCN)NC(=O)[C@H](CCC(=O)O)NC(=O)[C@H](CCCNC(=N)N)NC(=O)CNC(=O)[C@H](CCC(=O)O)NC(=O)[C@H](CC(C)C)NC(C)=O)C(C)C)[C@@H](C)CC)[C@@H](C)O)C(N)=O)C(=O)O)C(=O)O)C(=O)O [compound 73] (Ac-LEGREKVRAK(Ac)I[Aib][Aib]EG[Nle]STWS[Aib]RKK([AEEA-AEEA-γGlu-γGlu-γGlu-Stearoyl])-NH2)
EC50: 0.12 nM | Emax: 90%

CCCCCCCCCCCCCCCCCC(=O)N[C@@H](CCC(=O)N[C@@H](CCC(=O)N[C@@H](CCC(=O)NCCOCCOCC(=O)NCCOCCOCC(=O)NCCOCCOCC(=O)NCCCC[C@H](NC(=O)[C@H](CCCCN)NC(=O)[C@H](CCCCN)NC(=O)[C@H](CCCNC(=N)N)NC(=O)C(C)(C)NC(=O)[C@H](CO)NC(=O)[C@H](Cc1c[nH]c2ccccc12)NC(=O)[C@@H](NC(=O)[C@H](CO)NC(=O)[C@H](CCCC)NC(=O)CNC(=O)[C@H](CCC(=O)O)NC(=O)C(C)(C)NC(=O)C(C)(C)NC(=O)[C@@H](NC(=O)[C@H](CCC(N)=O)NC(=O)[C@H](C)NC(=O)[C@H](CCCNC(=N)N)NC(=O)[C@@H](NC(=O)[C@H](CCCCN)NC(=O)[C@H](CCC(=O)O)NC(=O)[C@H](CCCNC(=N)N)NC(=O)CNC(=O)[C@H](CCC(=O)O)NC(=O)[C@H](CC(C)C)NC(C)=O)C(C)C)[C@@H](C)CC)[C@@H](C)O)C(N)=O)C(=O)O)C(=O)O)C(=O)O [compound 75] (Ac-LEGREKVRAQI[Aib][Aib]EG[Nle]STWS[Aib]RKKK([AEEA-AEEA-AEEA-γGlu-γGlu-γGlu-Stearoyl])-NH2)
EC50: 0.07 nM | Emax: 88%

CCCCCCCCCCCCCCCCCC(=O)N[C@@H](CCC(=O)N[C@@H](CCC(=O)N[C@@H](CCC(=O)NCCOCCOCC(=O)NCCOCCOCC(=O)NCCOCCOCC(=O)NCCCC[C@H](NC(=O)[C@H](CCCCN)NC(=O)[C@H](CCCCN)NC(=O)[C@H](CCCNC(=N)N)NC(=O)C(C)(C)NC(=O)[C@@H](NC(=O)[C@H](Cc1c[nH]c2ccccc12)NC(=O)[C@@H](NC(=O)[C@H](CO)NC(=O)[C@H](CCCC)NC(=O)CNC(=O)[C@H](CCC(=O)O)NC(=O)C(C)(C)NC(=O)C(C)(C)NC(=O)[C@@H](NC(=O)[C@H](CCC(N)=O)NC(=O)[C@H](C)NC(=O)[C@H](CCCNC(=N)N)NC(=O)[C@@H](NC(=O)[C@H](CCCCN)NC(=O)[C@H](CCC(=O)O)NC(=O)[C@H](CCCNC(=N)N)NC(=O)CNC(=O)[C@H](CCC(=O)O)NC(=O)[C@H](CC(C)C)NC(C)=O)C(C)C)[C@@H](C)CC)[C@@H](C)O)[C@@H](C)O)C(N)=O)C(=O)O)C(=O)O)C(=O)O [compound 76] (Ac-LEGREKVRAQI[Aib][Aib]EG[Nle]STWT[Aib]RKKK([AEEA-AEEA-AEEA-γGlu-γGlu-γGlu-Stearoyl])-NH2)
Emax: 89%

CCCCCCCCCCCCCCCCCC(=O)N[C@@H](CCC(=O)N[C@@H](CCC(=O)N[C@@H](CCC(=O)NCCOCCOCC(=O)NCCOCCOCC(=O)NCCOCCOCC(=O)NCCCC[C@H](NC(=O)[C@H](CCCCN)NC(=O)[C@H](CCCCN)NC(=O)[C@H](CCCNC(=N)N)NC(=O)C(C)(C)NC(=O)[C@H](CO)NC(=O)[C@H](Cc1c[nH]c2ccccc12)NC(=O)[C@@H](NC(=O)[C@H](CO)NC(=O)[C@H](CCCC)NC(=O)CNC(=O)[C@H](CCC(=O)O)NC(=O)C(C)(C)NC(=O)C(C)(C)NC(=O)[C@@H](NC(=O)[C@H](CCC(N)=O)NC(=O)[C@H](CC(C)C)NC(=O)[C@H](CCCNC(=N)N)NC(=O)[C@@H](NC(=O)[C@H](CCCCN)NC(=O)[C@H](CCC(=O)O)NC(=O)[C@H](CCCNC(=N)N)NC(=O)CNC(=O)[C@H](CCC(=O)O)NC(=O)[C@H](CC(C)C)NC(C)=O)C(C)C)[C@@H](C)CC)[C@@H](C)O)C(N)=O)C(=O)O)C(=O)O)C(=O)O [compound 77] (Ac-LEGREKVRLQI[Aib][Aib]EG[Nle]STWS[Aib]RKKK([AEEA-AEEA-AEEA-γGlu-γGlu-γGlu-Stearoyl])-NH2)
Emax: 92%
